Literature values as cited in US8216786B2, “Genetic polymorphisms associated with cardiovascular diseases, methods of detection and uses thereof” (Celera Corporation, priority 2008, dated 2012).

Test system: animal models and myocyte cultures
Details: compared to lipophilic statins; cited from earlier work

**Q.** For `CC[C@H](C)C(=O)O[C@H]1C[C@H](O)C=C2C=C[C@H](C)[C@H](CC[C@@H](O)C[C@@H](O)CC(=O)O)[C@H]21` [pravastatin], which myopathic potential is on record?
**A.** low myopathic potential
